Molecular target: T1, CaCYP707A2 (Capsicum annuum, UniProt X2C029)
T1 construct: gene CYP707A70; full-length, no N-terminal modification; pCW ori(+) in E. coli Rosetta (DE3) pLysS; 54 kDa
T1 sequence (X2C029 1-477): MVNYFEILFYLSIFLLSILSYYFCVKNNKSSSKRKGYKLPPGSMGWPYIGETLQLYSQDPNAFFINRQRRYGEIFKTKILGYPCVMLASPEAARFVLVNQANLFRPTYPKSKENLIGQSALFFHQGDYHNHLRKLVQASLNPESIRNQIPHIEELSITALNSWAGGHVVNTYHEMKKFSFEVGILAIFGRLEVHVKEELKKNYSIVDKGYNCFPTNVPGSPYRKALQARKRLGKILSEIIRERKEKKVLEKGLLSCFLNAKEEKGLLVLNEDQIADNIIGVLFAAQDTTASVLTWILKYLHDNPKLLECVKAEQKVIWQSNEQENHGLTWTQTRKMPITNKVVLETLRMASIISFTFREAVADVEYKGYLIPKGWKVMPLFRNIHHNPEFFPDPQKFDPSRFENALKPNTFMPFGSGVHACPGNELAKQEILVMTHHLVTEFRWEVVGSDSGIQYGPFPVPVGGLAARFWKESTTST
Test: spectral binding titration (type I UV-visible difference spectrum)

`CC1=CC(=O)CC(C)(C)C1(O)/C=C/C(C)=C\C(=O)O` (stereo in doubt) [(+)-ABA] showed a Kd of 5.8 ± 0.93 µM.

— paper PMC10084752, “Heterologous Expression of the Hot Pepper ABA 8’-Hydroxylase in Escherichia coli for Phaseic Acid Production” (Journal of Microbiology and Biotechnology, 2023)
